Assay results reported in patent US8637470B2, “Small humanin-like peptides” (The Regents of the University of California, priority 2008, dated 2014).
Entries after “also recorded” stand apart in the source; their conditions may differ.

How the values were obtained:
STAT3 = STAT3 activation in 22RV1 cells (immunoblotting); assay type: cell-based, human; conditions: 22RV1, 100 nM
Method: Since HN causes activation of STAT3, SHLPs 2 and 3 were also tested for effects on STAT3. […] To more accurately quantify the ERK phosphorylation caused by SHLPs 2 and 3, we repeated the experiment as described above but used a commercially available ERK ELISA to assess ERK phosphorylation. Optimal ERK activation by SHLP2 was 9-fold after 24 h, whilst optimal activation by SHLP3 was 12-fold after 2 h (FIG. 5).

[1] = system: Mouse primary cortical neurons; test: Protection of primary cortical neurons from Aβ-induced cell death (Calcein-AM); assay type: cell-based; conditions: 25 μM Aβ1-43, 100 nM peptide, 72 h
Method: SHLPs protect neurons from Aβ-induced apoptosis. When it was first discovered, HN was described as a potent neural survival factor with clinical implications as a therapeutic agent against neurodegenerative diseases such as Alzheimer's Disease. Since many of the SHLPs appear to be functionally related to HN, SHLPs were tested as potential neuroprotective factors. Mouse primary cortical neurons were incubated with 25 μM Aβ1-43 in the presence or absence of 100 nM SHLP2 or 3, HNG (positive control) or 1 nM colivelin (positive control). After 72 h, neuronal viability was assessed by Calcein-AM staining followed by fluorescence microscopy (FIG. 13).

S. cerevisiae = test: Yeast heat shock survival; assay type: cell-based; conditions: 10 μM peptide, 90° heat shock
Method: SHLPs enhance stress resistance in yeast. The ability of SHLPs to enhance stress resistance in yeast was tested. The ability of yeast to survive heat shock after being treated with different peptides is a commonly used method to test the ability of peptides to enhance yeast survival.

ERK = ERK phosphorylation in NIT-1 cells (immunoblotting, ELISA); assay type: cell-based, mouse; conditions: NIT-1, 100 nM
Method: In addition to 22RV1, the effects of SHLPs on ERK and STAT3 phosphorylation were also studied in NIT-1 pancreatic β-cells. […] Indeed, the activation profile caused by SHLP3 in NIT-1 is remarkably similar to that stimulated by SHLP2 in 22RV1. When ERK activation was quantified by ELISA, a 6-fold and 9-fold activation was observed after 2 and 24 h, respectively, by SHLP2.

[2] = system: 22RV1 human prostate cancer cells; test: Cell proliferation (cell number by MTT/MTS cleavage) in 22RV1 cells; assay type: cell-based; conditions: 22RV1, 100 nM peptide, 72 h
Method: (§1) SHLPs exert distinct effects on cell proliferation. Whether SHLPs have the capacity to influence cell proliferation, in addition to their intrinsic effects on apoptosis induction, was also investigated. Mouse NIT-1 insulinoma β-cells and 22RV1 human prostate cancer cells were serum starved for 24 h, followed by 72 h incubation with 100 nM scrambled control peptide, HN or SHLPs. Cell number, as a measure of cell proliferation, was assessed by cleavage of MTT substrate.
Pro-apoptotic effect on human prostate cancer cells in vitro. To assess the ability of SHLP6 to induce apoptosis in human prostate cancer cells, PC-3, 22RV1 or DU145 cells were incubated in serum free (SF) media for 24 h followed by 24 h incubation with 1 μM scrambled (control) peptide or SHLP6. Apoptosis was assessed by ELISA for fragmentation of histone-associated DNA. In each cell line tested, SHLP6 induced apoptosis by at least 2-fold (FIG. 2), confirming highly significant physiological effects of this novel peptide. To determine whether the effects of SHLP6 were specific to induction of apoptosis, or if it also elicited growth-inhibitory effects, PC-3, DU-145, 22RV1, LAPC4 and LNCaP cells were incubated in SF media for 24 h followed by 72 h incubation with 1 μM SHLP6. Cell number, as a measure of cell proliferation, was assessed by cleavage of MTS substrate.

[3] = system: Mouse NIT-1 insulinoma β-cells; test: Cell proliferation (cell number by MTT/MTS cleavage) in NIT-1 cells; assay type: cell-based; conditions: NIT-1, 100 nM peptide, 72 h
Method: as §1

[4] = system: Mouse NIT-1 insulinoma β-cells; test: Apoptosis ELISA (fragmentation of histone-associated DNA) in NIT-1 cells; assay type: cell-based; conditions: for Effect on apoptosis in the presence of IGFBP-3: NIT-1, 1 μg/ml IGFBP-3 plus SHLP; for Effect of SHLP on apoptosis after PD98059 pre-treatment: NIT-1, 25 μM PD98059 (ERK1/2 inhibitor)
Method: SHLPs are anti-apoptotic in 22RV1 prostate cancer cells and NIT-1 β-cells. […] Mouse NIT-1 insulinoma β-cells and 22RV1 human prostate cancer cells were serum starved for 24 h, followed by 24 h incubation with 100 nM scrambled control peptide, HN or SHLPs. Apoptosis was assessed and quantified by ELISA for fragmentation of histone-associated DNA.
ERK activation is necessary for SHLP-induced inhibition of apoptosis in NIT-1 and 22RV1 cells. To determine the significance of ERK activation for apoptosis inhibition by SHLPs 2 and 3, PD98059 (PD), a specific chemical inhibitor of ERK1/2, was utilized. 22RV1 and NIT-1 cells were serum starved for 24 h in the presence or absence of 25 μM PD or 1 μM wortmannin (PI3-kinase inhibitor; negative control), followed by 24 h incubation with […] scrambled control peptide, SHLP2 or SHLP3. Apoptosis was then assessed by ELISA for fragmentation of histone-associated DNA.
Role of IGFBP-3 in effects of SHLPs on cell survival. Since IGFBP-3 is an important regulator of HN action, IGFBP-3 was tested for a possible role in regulating the anti- or pro-apoptotic actions of SHLPs. NIT-1 cells were incubated with 1 μg/ml IGFBP-3±0, 10, 100 or 1000 nM SHLP2 or 3 for 24 h. Apoptosis induction was assessed by ELISA for fragmentation of histone-associated DNA.
Co-incubation of SHLPs. To evaluate therapeutic uses involving co-treatment with SHLPs, the effect of HN±SHLPs on apoptosis was tested in both 22RV1 and NIT-1 cells. Cells were incubated in SF media for 24 h followed by 24 h with 100 nM HN, SHLP or peptide combination. Apoptosis was assessed by ELISA for fragmentation of histone-associated DNA. Cells were treated with all possible double peptide combinations. Although many peptide combinations had no additive or combined effects compared with the actions of the peptides individually, co-treatment with certain combinations led to unexpected functional changes (FIG. 11). […] Thus, specific SHLPs may either act on complementary pathways, or interact with each other, leading to change of function of one or both peptides. When the same experiments were repeated in NIT-1 cells, similar, but different, change of function effects were observed (FIG. 11B).

[5] = NIT-1, 0, 10, 100 or 1000 nM SHLP, 24 h

Sequence: MGVKFFTLSTRFFPSVQRAVPLWTNS [SHLP2, small humanin-like peptide, mtDNA 2092-2170]
- STAT3 activation (immunoblotting) (STAT3): significantly enhanced STAT3 activation
- Neuronal viability against Aβ-induced cell death [1]: protect the neurons from the cell death; also recorded: function as neuro-protective factors
- Yeast survival of heat shock (S. cerevisiae): allowed the yeast to withstand 90° heat shock; also recorded: enhance yeast survival against heat shock
- ERK phosphorylation profile (immunoblotting) (ERK): detected within 30 min
- ERK activation (ELISA) (ERK; after 2 h): 6 fold
- ERK activation (ELISA) (ERK; after 24 h): 9 fold
- Cell number as a measure of cell proliferation [2]: much greater effect
- Cell number as a measure of cell proliferation [3]: much greater effect
- Apoptosis (fragmentation of histone-associated DNA) [4, 5]: dose dependent inhibition of apoptosis
- SHLP-induced cell survival after wortmannin pre-treatment ([4]; NIT-1, 1 μM wortmannin (PI3-kinase inhibitor)): not in NIT-1 cells
- Effect on apoptosis in the presence of IGFBP-3 ([4]; 24 h): unaffected by the presence of IGFBP-3
- Effect of SHLP on apoptosis after PD98059 pre-treatment [4]: abrogated
- Apoptosis (fragmentation of histone-associated DNA) ([4]; NIT-1, serum starved 24 h, then 24 h with 100 nM peptide): significantly inhibited

Sequence: MLGYNFSSFPCGTISIAPGFNFYRLYFIWVNGLAKVVW [SHLP3, small humanin-like peptide, mtDNA 1707-1821]
- STAT3 activation (immunoblotting) (STAT3): significantly enhanced STAT3 activation
- Neuronal viability against Aβ-induced cell death [1]: protect the neurons from the cell death; also recorded: function as neuro-protective factors
- Yeast survival of heat shock (S. cerevisiae): allowed the yeast to withstand 90° heat shock; also recorded: enhance yeast survival against heat shock
- ERK phosphorylation profile (immunoblotting) (ERK): more delayed response
- ERK activation (ELISA) (ERK; after 2 h): no detectable increase
- ERK activation (ELISA) (ERK; after 24 h): 15 fold
- Cell number as a measure of cell proliferation [2]: much greater effect
- Cell number as a measure of cell proliferation [3]: much greater effect
- Apoptosis (fragmentation of histone-associated DNA) [4, 5]: reduced levels of apoptosis
- Effect on apoptosis in the presence of IGFBP-3 ([4]; 24 h): inhibit IGFBP-3-induced apoptosis
- Effect of SHLP on apoptosis after PD98059 pre-treatment [4]: abrogated
